Measurements published in patent US20260234125A1, “CYCLIC AMINE DERIVATIVE, AND COMPOSITION AND USE THEREOF” (SHANGHAI JINGXIN BIOMEDICAL CO., LTD., priority 2023, published 2026).

How the values were obtained:
hERG potassium channel = target: T1, hERG potassium channel (Homo sapiens, UniProt Q12809); test: hERG whole-cell patch clamp experiment; assay type: cell-based; conditions: HEK-293 cells that express hERG, HEK-293-hERG cell, read-out: inhibition rate
T1 construct: expressed in transfected cells; host or cells: HEK-293-hERG cells
Experimental: • 1. Experimental purpose: The purpose of this test is to test the inhibition rate of the compounds on the hERG potassium channel • 2. Experimental methods: The hERG current was recorded using the whole-cell patch clamp technique. A suspension of HEK-293-hERG cell was added to a small culture dish and placed on an inverted microscope stage. After the cells adhered to the dish, extracellular fluid was perfused at a flow rate of 1-2 mL/minute. The glass microelectrode was pulled in two steps by a microelectrode puller, after the electrode was filled with internal fluid, its water resistance was 2-5 MΩ. After establishing the whole-cell recording mode, the holding potential was maintained at −80 mV. A depolarizing voltage to +60 mV was applied for 850 ms, and then followed by repolarization to −50 mV for 1275 ms to elicit the hERG tail current. This set of pulse programs was repeated every 15 seconds throughout the experiment. After the current stabilized, the test compound was administered via continuous extracellular perfusion from low concentration to high concentration. Starting from a low concentration, perfusion was continued until the drug effect was stable, and then the next concentration was perfused.

[1] = Bioavailability determination in cynomolgus monkeys; assay type: in vivo; conditions: cynomolgus monkey, plasma, 1 mg/kg intravenous and 7.5 mg/kg oral gavage, read-out: bioavailability F
Experimental: • 1. Experimental purpose: The purpose of this test is to test the bioavailability of the compound in cynomolgus monkeys • 2. Experimental methods: The cynomolgus monkeys were housed with a standard light cycle (12 hours light/12 hours dark), at a room temperature of 18-26° C. and a relative humidity of 40-70%, with free access to water and normal diet. Five days prior to the study, the cynomolgus monkeys were randomly assigned to an intravenous administration group and an oral administration group (n=2/group) on their body weight for the study. The administration volume was calculated according to the body weight of the animals on the day of administration, and the administration volume was 2 mL/kg, the single intravenous administration was performed at a dose of 1 mg/kg, and the solvent was 5% DMSO, 5% Solutol, and 90% Saline. Blood was collected from the forelimb vein or other suitable veins at 0.083 h, 0.25 h, 0.5 h, 1 h, 2 h, 4 h, 6 h, 8 h, 12 h, 24 h, 48 h and 72 h after administration. The administration volume was calculated according to the weight of the animals on the day of administration, and the administration volume was 5 mL/kg, the single oral gavage administration was performed at a dose of 7.5 mg/kg, and the solvent was 1% HEC and 0.25% Tween 80 in Water. […]

human Apo(a) protein = target: T2, human Apo(a) protein (Homo sapiens, UniProt P08519); test: BLI affinity of compounds to Apo(a); assay type: binding; conditions: biotinylated apolipoprotein(a) on SA sensor, compound 100 nM
T2 construct: biotin (biotinylated)
Experimental: • 1. Experimental purpose: The purpose of this test is to test the affinity of the compounds of the present disclosure to Apo(a) • 2. Experimental instruments and reagents: • Molecular interaction analyzer (ForteBio Octet red 96e), • SA sensor (ForteBio), • 96-well plates were purchased from Greine, • 3. Experimental methods:
Prepared two 96-well plates, one as a sample plate and another as a pre-wett plate, curing buffer was added to a 200 μL well of the pre-wet plate, and the SA sensor was pre-wetted for at least ten minutes. All reagents and samples were added to another black sample plate, after the sample addition was completed, the sensor plate and the sample plate were placed into the ForteBio Octet red 96e instrument. The program was set up in sequence for detection. The experimental temperature was set to 30° C. and the acquisition frequency was set at 5.0 Hz. The biosensor was run in 1×PBS, pH7.4, 0.02% Tween-20, 0.1% BSA in the first column for 60 seconds, which was the baseline step. Biotinylated apolipoprotein(a) was diluted to 40 μg/ml with 1×PBS, pH7.4, 0.02% Tween-20, 0.1% BSA, and added to the second column, where it was run for a period of time until the amount of curing on the sensor reaches 2.0 nm. The biosensor was run in 1×PBS, pH7.4, 0.02% Tween-20, 0.1% BSA in the third column for 60 seconds, which was the baseline step. The compound was diluted to 100 nM with 1×PBS, pH7.4, 0.02% Tween-20, 0.1% BSA, and added to the fourth column, where the sensor was run for 60 seconds. The sensor was run in 1×PBS, pH7.4, 0.02% Tween-20, 0.1% BSA in the third column for 120 seconds, during this process, the compound dissociated from the sensor. The affinity constant KD reflects the size of the interaction binding ability. When the concentration of the analyte is at KD, the equilibrium signal Req is half of Rmax.

T1 sequence (Q12809 whole entry): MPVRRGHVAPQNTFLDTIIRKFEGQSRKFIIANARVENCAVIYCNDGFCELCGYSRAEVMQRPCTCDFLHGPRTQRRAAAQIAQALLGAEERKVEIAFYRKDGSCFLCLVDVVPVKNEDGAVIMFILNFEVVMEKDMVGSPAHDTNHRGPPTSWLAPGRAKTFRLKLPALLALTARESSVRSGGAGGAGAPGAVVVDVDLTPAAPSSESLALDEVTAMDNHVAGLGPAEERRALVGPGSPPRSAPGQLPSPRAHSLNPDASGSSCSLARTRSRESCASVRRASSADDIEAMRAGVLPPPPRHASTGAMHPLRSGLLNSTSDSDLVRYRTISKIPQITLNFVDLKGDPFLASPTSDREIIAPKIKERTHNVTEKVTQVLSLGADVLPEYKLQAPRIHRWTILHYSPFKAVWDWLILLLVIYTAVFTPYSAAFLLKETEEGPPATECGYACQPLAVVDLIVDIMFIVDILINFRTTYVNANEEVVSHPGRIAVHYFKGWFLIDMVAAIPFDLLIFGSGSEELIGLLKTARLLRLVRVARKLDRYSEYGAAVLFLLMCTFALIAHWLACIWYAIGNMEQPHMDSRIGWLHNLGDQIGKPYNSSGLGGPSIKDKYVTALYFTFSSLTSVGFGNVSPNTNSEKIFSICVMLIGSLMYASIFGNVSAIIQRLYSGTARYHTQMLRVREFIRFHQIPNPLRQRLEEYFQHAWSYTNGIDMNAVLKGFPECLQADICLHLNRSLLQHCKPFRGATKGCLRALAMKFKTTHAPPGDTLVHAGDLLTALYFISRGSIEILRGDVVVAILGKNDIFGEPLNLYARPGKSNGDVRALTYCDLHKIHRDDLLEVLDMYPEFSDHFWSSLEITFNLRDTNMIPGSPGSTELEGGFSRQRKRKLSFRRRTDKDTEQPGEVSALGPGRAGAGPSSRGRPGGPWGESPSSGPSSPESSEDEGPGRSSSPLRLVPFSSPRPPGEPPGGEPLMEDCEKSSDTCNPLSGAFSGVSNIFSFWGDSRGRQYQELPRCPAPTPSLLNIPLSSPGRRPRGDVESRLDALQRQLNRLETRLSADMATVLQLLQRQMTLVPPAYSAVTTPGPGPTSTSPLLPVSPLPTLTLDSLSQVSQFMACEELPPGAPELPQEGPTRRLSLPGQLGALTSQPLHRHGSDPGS
T2 sequence (P08519 20-2040): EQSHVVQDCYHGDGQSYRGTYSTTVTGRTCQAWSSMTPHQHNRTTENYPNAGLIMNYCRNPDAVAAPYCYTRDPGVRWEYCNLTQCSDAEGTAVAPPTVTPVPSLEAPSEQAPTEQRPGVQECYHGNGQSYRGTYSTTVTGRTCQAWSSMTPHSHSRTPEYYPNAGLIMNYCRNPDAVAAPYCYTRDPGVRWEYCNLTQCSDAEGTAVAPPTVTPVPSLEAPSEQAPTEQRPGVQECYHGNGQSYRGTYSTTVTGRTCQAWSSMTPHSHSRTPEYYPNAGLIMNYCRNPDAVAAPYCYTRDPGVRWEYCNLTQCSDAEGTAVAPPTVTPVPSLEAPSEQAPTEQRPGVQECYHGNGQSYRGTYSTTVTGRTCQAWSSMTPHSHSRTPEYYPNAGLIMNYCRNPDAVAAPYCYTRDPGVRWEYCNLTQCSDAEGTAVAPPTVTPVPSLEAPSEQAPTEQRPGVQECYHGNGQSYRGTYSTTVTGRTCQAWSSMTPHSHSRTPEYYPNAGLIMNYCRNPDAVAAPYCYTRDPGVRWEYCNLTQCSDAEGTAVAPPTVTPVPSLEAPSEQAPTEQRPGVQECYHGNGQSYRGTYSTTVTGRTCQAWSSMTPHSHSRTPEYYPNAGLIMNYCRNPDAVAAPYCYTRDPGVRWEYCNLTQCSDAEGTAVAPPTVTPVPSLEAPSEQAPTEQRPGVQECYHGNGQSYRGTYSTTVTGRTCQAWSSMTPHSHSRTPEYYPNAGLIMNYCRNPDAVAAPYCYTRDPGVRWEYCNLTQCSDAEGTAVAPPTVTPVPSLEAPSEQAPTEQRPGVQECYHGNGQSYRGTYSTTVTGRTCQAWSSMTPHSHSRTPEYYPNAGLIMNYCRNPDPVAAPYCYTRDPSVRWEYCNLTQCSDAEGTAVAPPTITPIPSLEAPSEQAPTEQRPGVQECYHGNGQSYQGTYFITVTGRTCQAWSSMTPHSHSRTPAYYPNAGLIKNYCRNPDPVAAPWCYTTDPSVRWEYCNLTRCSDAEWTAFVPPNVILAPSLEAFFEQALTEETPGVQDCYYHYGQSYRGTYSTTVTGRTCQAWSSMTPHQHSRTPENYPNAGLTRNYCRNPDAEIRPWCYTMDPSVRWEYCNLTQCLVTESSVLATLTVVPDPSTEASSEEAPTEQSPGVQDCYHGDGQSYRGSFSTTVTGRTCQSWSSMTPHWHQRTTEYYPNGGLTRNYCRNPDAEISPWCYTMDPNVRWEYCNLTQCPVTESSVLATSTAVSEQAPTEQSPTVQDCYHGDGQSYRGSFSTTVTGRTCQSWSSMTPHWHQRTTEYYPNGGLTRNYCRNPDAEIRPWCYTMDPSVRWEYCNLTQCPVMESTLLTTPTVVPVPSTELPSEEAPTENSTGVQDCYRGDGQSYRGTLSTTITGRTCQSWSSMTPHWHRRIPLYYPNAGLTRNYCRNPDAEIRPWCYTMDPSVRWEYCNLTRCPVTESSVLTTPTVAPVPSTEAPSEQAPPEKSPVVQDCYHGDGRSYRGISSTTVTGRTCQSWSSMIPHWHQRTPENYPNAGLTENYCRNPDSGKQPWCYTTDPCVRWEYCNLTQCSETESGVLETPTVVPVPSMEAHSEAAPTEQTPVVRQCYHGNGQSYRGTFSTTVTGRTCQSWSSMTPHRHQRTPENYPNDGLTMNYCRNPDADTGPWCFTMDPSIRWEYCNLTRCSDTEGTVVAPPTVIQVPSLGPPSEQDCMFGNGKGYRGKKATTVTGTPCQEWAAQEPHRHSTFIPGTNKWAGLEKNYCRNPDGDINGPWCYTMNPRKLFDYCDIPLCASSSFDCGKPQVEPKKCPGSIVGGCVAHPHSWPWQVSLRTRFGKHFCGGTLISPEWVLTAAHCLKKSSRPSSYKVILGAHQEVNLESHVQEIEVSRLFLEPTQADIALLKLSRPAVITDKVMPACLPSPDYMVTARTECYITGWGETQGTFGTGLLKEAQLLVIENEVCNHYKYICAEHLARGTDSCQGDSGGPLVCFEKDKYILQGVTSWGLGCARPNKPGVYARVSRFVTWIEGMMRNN

Structure (SMILES) | inhibition at 0.3 µM (hERG potassium channel) [%] | inhibition at 1 µM (hERG potassium channel) [%] | inhibition at 3 µM (hERG potassium channel) [%] | bioavailability [1] [%] | Kd (human Apo(a) protein) [nM]
O=C(O)[C@@H](Cc1cccc(CN(Cc2cccc(C[C@H](C(=O)O)[C@H]3CCNC3)c2)Cc2cccc(C[C@H](C(=O)O)[C@H]3CCNC3)c2)c1)[C@H]1CCNC1 [Comparative Example 1, reference compound] | 7.37 | 24.6 | 29.2 | 10.2 | 
O=C(O)[C@@H](Cc1cccc(CN(Cc2cccc(C[C@H](C(=O)O)[C@H]3CCNC3)c2)C(=O)c2cccc(C[C@H](C(=O)O)[C@H]3CCNC3)c2)c1)[C@H]1CCNC1 [Example 5] | -0.06 | 3.47 | 3.67 | 16.8 | 10.9
